Measured values reported in patent US20020161528A1, “Tool for lipophilicity determination in drug discovery basic and neutral compounds” (Pfizer Inc., priority 2001, published 2002).
Structures can show the parent of a compound that is named as a salt. Where two headings read alike, the source gives them in different places.

Legend:
[1] = for log k′w / ElogDoct: pH 7.4
[2] = pH 7.4, cited from earlier work
[3] = physchem; conditions: pH 7.4
[4] = Table 1, capacity factor extrapolated to 0% methanol, average of three to five determinations
[5] = Table 1, average of literature references only
[6] = Table 1, from log k′w by Equation 1

SMILES | log k′w [1, 4] | chromatographic logD [3] | also measured
C[C@]12CC[C@H]3[C@@H](CCC4=CC(=O)CC[C@@]43C)[C@@H]1CC[C@@H]2O [Testosterone] | 2.63 | – | Res (logDoct − ElogDoct) ([1]; Table 1): 0.12; ElogDoct [1]: 3.17; logDoct [2, 5]: 3.29
Oc1cccc(Cl)c1 [3-Chlorophenol] | 2.58 | 3.11 | Res (logDoct − ElogDoct) ([1]; Table 1): −0.61
O=C1Nc2ccc(Cl)cc2C(c2ccccc2Cl)=NC1O (stereo not drawn) [Lorazepam] | 2.30 | 2.8 | Res (logDoct − ElogDoct) ([1]; Table 1): −0.29
CC(=O)OCC(=O)[C@@]1(O)CC[C@H]2[C@@H]3CCC4=CC(=O)CC[C@]4(C)[C@H]3[C@@H](O)C[C@@]21C [Hydrocortisone-21 acetate] | 1.64 | – | Res (logDoct − ElogDoct) ([1]; Table 1): 0.13; ElogDoct [1, 6]: 2.06; logDoct [2]: 2.19
COC1=CC(=O)C[C@@H](C)[C@]12Oc1c(Cl)c(OC)cc(OC)c1C2=O [Griseofulvin] | 1.73 | 2.16 | logDoct [2, 5]: 2.18
Oc1cc(Cl)cc(Cl)c1 [3,5-Dichiorophenol] | 3.44 | – | Res (logDoct − ElogDoct) ([1]; Table 1): −0.40; ElogDoct [1]: 4.08; logDoct [2]: 3.68
c1ccc2ncccc2c1 [Quinoline] | 1.52 | 1.92 | logDoct [2]: 2.03
c1ccc2ccccc2c1 [Naphthalene] | 3.03 | 3.62 | –
O=C(NCC1CCCCN1)c1cc(OCC(F)(F)F)ccc1OCC(F)(F)F (stereo not drawn) [Flecainide] | 0.25 | 0.49 | –
COc1ccc2[nH]c([S+]([O-])Cc3ncc(C)c(OC)c3C)nc2c1 (stereo not drawn) [Omeprazole] | – | 2 | –
C[C@]12CCC(=O)C=C1CC[C@@H]1[C@@H]2[C@@H](O)C[C@@]2(C)[C@H]1CC[C@]2(O)C(=O)CO [Hydrocortisone] | – | 1.49 | –
CNC(=C[N+](=O)[O-])NCCSCc1csc(CN(C)C)n1 [Nizatidine] | −0.13 | 0.06 | logDoct [2, 5]: −0.52
C[C@]12C=CC(=O)C=C1CC[C@@H]1[C@@H]2C(=O)C[C@@]2(C)[C@H]1CC[C@]2(O)C(=O)CO [Prednisone] | 0.90 | 1.22 | –
CC(C)(C)NCC(O)c1cc(O)cc(O)c1 (stereo not drawn) [Terbutaline sulfate] | −1.51 | -1.49 | logDoct [2, 5]: −1.35
CN1[C@@H]2CC[C@H]1C[C@@H](OC(=O)C(CO)c1ccccc1)C2 (stereo partly drawn) [Atropine] | – | – | log k′w [1]: −0.33
CN1C(=O)C(O)N=C(c2ccccc2Cl)c2cc(Cl)ccc21 (stereo not drawn) [Lormetazepam] | 2.27 | 2.77 | Res (logDoct − ElogDoct) ([1]; Table 1): −0.05; logDoct [2, 5]: 2.72
C[C@@H]1C[C@H]2[C@@H]3CCC4=CC(=O)C=C[C@]4(C)[C@@]3(F)[C@@H](O)C[C@]2(C)[C@@]1(O)C(=O)CO [Dexamethasone] | – | 2.03 | logDoct [2, 5]: 1.83
COc1ccc2c3c1O[C@H]1[C@@H](O)C=C[C@H]4[C@@H](C2)N(C)CC[C@@]341 [Codeine] | 0.16 | 0.39 | Res (logDoct − ElogDoct) ([1]; Table 1): −0.16; logDoct [2, 5]: 0.23
CSc1ncnc2c1ncn2[C@@H]1O[C@H](CO)[C@@H](O)[C@H]1O [Methylthioinosine] | 0.25 | – | Res (logDoct − ElogDoct) ([1]; Table 1): −0.40; ElogDoct [1, 6]: 0.49; logDoct [2]: 0.09
CS(=O)(=O)c1ccc([C@@H](O)[C@@H](CO)NC(=O)C(Cl)Cl)cc1 [Thiamphenicol] | −0.05 | 0.15 | logDoct [2, 5]: −0.27
O=C(CCCN1CCC(O)(c2ccc(Cl)cc2)CC1)c1ccc(F)cc1 [Haloperidol] | 2.00 | 2.46 | –
CC/C(=C(/CC)c1ccc(O)cc1)c1ccc(O)cc1 [Diethylstilbestrol] | 4.12 | 4.85 | logDoct [2, 5]: 5.07
CN(C)CCCN1c2ccccc2Sc2ccc(Cl)cc21 [Chlorpromazine] | 2.66 | 3.2 | –
C[C@]12CC[C@@H]3c4ccc(O)cc4CC[C@H]3[C@@H]1CC[C@@H]2O [Estradiol] | – | 3.9 | –
CCN(CC)CCNC(=O)c1ccc(N)cc1 [Procainamide] | −0.69 | -0.57 | –

SMILES | log k′w [1, 4] | chromatographic logD [3] | also measured
CCOC(=O)N1CCC(=C2c3ccc(Cl)cc3CCc3cccnc32)CC1 [Loratadine] | 4.02 | – | –
CC(C)NCC(O)c1ccc(NS(C)(=O)=O)cc1 (stereo not drawn) [Sotalol] | −1.47 | -1.45 | –
COCCc1ccc(OCC(O)CNC(C)C)cc1 (stereo not drawn) [Metoprolol] | −0.73 | -0.62 | –
CN(C)CCC(c1ccc(Cl)cc1)c1ccccn1 (stereo not drawn) [Chlorpheniramine] | 1.20 | – | –
CCCCc1oc2ccccc2c1C(=O)c1cc(I)c(OCCN(CC)CC)c(I)c1 [Amiodarone] | 5.10 | – | –
CN1CCN(C2=Nc3cc(Cl)ccc3Nc3ccccc32)CC1 [Clozapine] | – | 3.38 | –
C[C@]12C=CC(=O)C=C1CC[C@@H]1[C@@H]2[C@@H](O)C[C@@]2(C)[C@H]1CC[C@]2(O)C(=O)CO [Prednisolone] | 1.24 | 1.6 | –
CCN(CC)CC(=O)Nc1c(C)cccc1C [Lidocaine] | 0.96 | – | –
CN(C)CCOC(c1ccccc1)c1ccccc1 [Diphenhydramine] | 1.04 | – | –
NC(=O)N1c2ccccc2C=Cc2ccccc21 [Carbamazepine] | 1.40 | – | logDoct [2, 5]: 2.19
Nc1nc(N)c2nc(-c3ccccc3)c(N)nc2n1 [Triamterene] | 0.71 | 1.01 | –
CN(C)CCCN1c2ccccc2CCc2ccccc21 [Imipramine] | 1.56 | – | –
CC(=O)Nc1ccc(O)cc1 [Acetominophen] | 0.15 | – | Res (logDoct − ElogDoct) ([1]; Table 1): 0.13; ElogDoct [1, 6]: 0.38
CC(=O)c1ccccc1 [Acetophenone] | 1.21 | 1.57 | –
Brc1cnc2ccccc2c1 [3-Bromoquinoline] | 2.53 | – | logDoct [2, 5]: 3.03
CN1CC[C@]23c4c5ccc(O)c4O[C@H]2[C@@H](O)C=C[C@H]3[C@H]1C5.O=S(=O)(O)O [Morphine sulfate] | – | – | log k′w [1]: 0.10
CCOC(=O)C1=C(COCCN)NC(C)=C(C(=O)OC)C1c1ccccc1Cl (stereo not drawn) [Amlodipine] | – | 2.15 | –
NS(=O)(=O)c1cc(C2(O)NC(=O)c3ccccc32)ccc1Cl (stereo not drawn) [Chlorthalidone] | 0.76 | 1.06 | –
Cc1nc2n(c(=O)c1CCN1CCC(c3noc4cc(F)ccc34)CC1)CCCC2 [Risperidone] | 1.23 | 1.59 | Res (logDoct − ElogDoct) ([1]; Table 1): 0.45
CSc1ccc2c(c1)N(CCC1CCCCN1C)c1ccccc1S2 (stereo not drawn) [Thioridazine] | 2.88 | 3.45 | –
CN1C(=O)CN=C(c2ccccc2)c2cc(Cl)ccc21 [Diazepam] | – | – | log k′w [1]: 2.46
C=CCc1ccccc1OCC(O)CNC(C)C (stereo not drawn) [Alprenolol] | 0.37 | 0.62 | –
Clc1ccccc1C(c1ccccc1)(c1ccccc1)n1ccnc1 [Clotrimazole] | 4.03 | 4.75 | –
Cc1cccc(N(C)C(=S)Oc2ccc3ccccc3c2)c1 [Tolnaftate] | 4.53 | – | –
